Source: US10059741B2 (priority 2015, dated 2018)
Read-outs that look alike come from different tables or passages of the source. Bridge positions count the residues as written; N and C are the ends. Square brackets hold non-standard residues; d marks the D form. Peptide text beside a SMILES is read from it. R8 = C=CCCCCCC[C@@](C)(N)C(=O)O; S5 = C=CCCC[C@](C)(N)C(=O)O; Nle = CCCC[C@H](N)C(=O)O; Aib = CC(C)(N)C(=O)O

Assays:
[1] = tested on: H3N2 Perth/16/2009; assay: microbe, parasite or virus in culture; assay type: cell-based, influenza A virus
[2] = tested on: H1N1 California/07/2009; assay: microbe, parasite or virus in culture; assay type: cell-based, influenza A virus
[3] = in vitro; settings: dog
[4] = tested on: influenza virus, various viral strains; assay: organism not typed; assay type: cell-based; settings: read-out: EC50
[5] = tested on: H7N9 A/Anhui/1/2013; assay: microbe, parasite or virus in culture; assay type: cell-based, influenza A virus; settings: read-out: EC50
[6] = tested on: H5N1 A/Hong Kong/213/2003; assay: microbe, parasite or virus in culture; assay type: cell-based, influenza A virus; settings: read-out: EC50
[7] = tested on: H1N1 A/Solomon Island/03/2006; assay type: cell-based, influenza A virus; settings: read-out: EC50
[8] = tested on: H3N2 Perth/16/2009; assay: microbe, parasite or virus in culture; assay type: cell-based, influenza A virus; remark: listed apart in the source
[9] = tested on: H1N1 California/07/2009; assay: microbe, parasite or virus in culture; assay type: cell-based, influenza A virus; remark: listed apart in the source
[10] = Cytopathic effect/toxicity (Neutral red), MDCK cells, read-out: EC50 (μM) H3N2 Perth/16/2009
[11] = Influenza A H3N2 Perth/16/2006 (so in the source), Drug Assay Neutral Red, read-out: EC50
[12] = Cytopathic effect/toxicity (Neutral red), MDCK cells, read-out: EC50 (μM) H1N1 California/07/2009
[13] = Influenza A H1N1 California/07/2009, Drug Assay Neutral Red, read-out: EC50
[14] = CC50 (μM) H1N1 California/07/2009, Cell cytotoxicity (CC), run with H1N1 California/07/2009
[15] = CC50 (μM) H3N2 Perth/16/2009, Cell cytotoxicity (CC), run with H3N2 Perth/16/2009
[16] = CC50, run with Influenza A H1N1 A/Solomon Is./3/2006-M, Neutral Red
[17] = CC50, run with Influenza A H1N1 A/Solomon Is./3/2006-M, Visual
[18] = CC50, run with Influenza A H1N1 California/07/20/09 (so in the source), later run, Neutral Red
[19] = CC50, run with Influenza A H1N1 California/07/20/09 (so in the source), Visual/Neutral Red
[20] = CC50, run with Influenza A H1N1 California/07/2009, Neutral Red
[21] = CC50, run with Influenza A H1N1 California/07/2009, Visual
[22] = CC50, run with Influenza A H3N2 Perth/16/2006 (so in the source), Neutral Red
[23] = CC50, run with Influenza A H3N2 Perth/16/2006 (so in the source), Visual
[24] = CC50, run with Influenza A H3N2 Perth/16/2009, last run, Neutral Red
[25] = CC50, run with Influenza A H3N2 Perth/16/2009, Visual/Neutral Red
[26] = Cytopathic effect/toxicity (Visual), MDCK cells, read-out: EC50 (μM) H3N2 Perth/16/2009
[27] = Influenza A H3N2 Perth/16/2006 (so in the source), Drug Assay Visual, read-out: EC50
[28] = Cytopathic effect/toxicity (Visual), MDCK cells, read-out: EC50 (μM) H1N1 California/07/2009
[29] = Influenza A H1N1 California/07/2009, Drug Assay Visual, read-out: EC50
[30] = read-out: EC50 (μM) H3N2 Perth/16/2009
[31] = read-out: EC50 (μM) H1N1 California/07/2009

## CCCC[C@H](NC(C)=O)C(=O)N[C@@H](CC(=O)O)C(=O)N[C@H](C(=O)N[C@@H](CC(N)=O)C(=O)N[C@@]1(C)CCCC=CCCC[C@@](C)(C(=O)N[C@@H](CC(C)C)C(=O)N[C@@H](C)C(=O)N[C@H](C(=O)N[C@@H](CCC(N)=O)C(=O)NC(C)(C)C(=O)N[C@@H](C)C(=O)N[C@@H](C)C(=O)N[C@@H](C)C(N)=O)C(C)C)NC(=O)[C@H](CC(C)C)NC(=O)[C@H](CC(C)C)NC(=O)[C@H]([C@@H](C)O)NC1=O)C(C)C [SP-21] (Ac-[Nle]DVN[S5]TLL[S5]LAVQ[Aib]AAA-NH2; staple 5-9)
[1]; [10]
  EC50: 1.5 to 10 µM
[1]; [11]
  EC50: 2.1 µM
[1]; Influenza A H3N2 Perth/16/2009, last run, Drug Assay Neutral Red, read-out: EC50
  EC50: 4.8 µM
[1]; Influenza A H3N2 Perth/16/2009, Drug Assay Visual/Neutral Red
  EC90: 8 µM
[2]; [12]
  EC50: 1.5 to 10 µM
[2]; Influenza A H1N1 California/07/20/09 (so in the source), later run, Drug Assay Neutral Red, read-out: EC50
  EC50: 21 µM
[2]; Influenza A H1N1 California/07/20/09 (so in the source), Drug Assay Visual/Neutral Red
  EC90: 9.6 µM
[2]; [13]
  EC50: 4.6 µM
[3]; CC50
  CC50: > 50 µM
[3]; [14]
  CC50: > 100 µM
[3]; [15]
  CC50: > 100 µM
[3]; [16]
  CC50: > 100 µM
[3]; [17]
  CC50: > 100 µM
[3]; [18]
  CC50: > 100 µM
[3]; [19]
  CC50: > 100 µM
[3]; [20]
  CC50: > 100 µM
[3]; [21]
  CC50: > 100 µM
[3]; [22]
  CC50: > 100 µM
[3]; [23]
  CC50: > 100 µM
[3]; [24]
  CC50: > 100 µM
[3]; [25]
  CC50: > 100 µM
[4]; Influenza A H1N1 A/Solomon Is./3/2006-M, Drug Assay Visual
  EC50: 4.8 µM
[5]
  EC50: 17 µM
[6]
  EC50: 39 µM
[7]; Influenza A H1N1 A/Solomon Is./3/2006-M, Drug Assay Neutral Red
  EC50: 5.3 µM
[8]; [26]
  EC50: < 1.5 µM
[8]; [27]
  EC50: 0.54 µM
[9]; [28]
  EC50: < 1.5 µM
[9]; [29]
  EC50: 1.3 µM

## CCCC[C@H](NC(C)=O)C(=O)N[C@@H](CC(=O)O)C(=O)N[C@H](C(=O)N[C@@H](CC(N)=O)C(=O)N[C@@]1(C)CCCC=CCCC[C@@](C)(C(=O)N[C@@H](CC(C)C)C(=O)N[C@@H](C)C(=O)N[C@H](C(=O)N[C@@H](CCC(N)=O)C(=O)N[C@@H](C)C(=O)N[C@@H](C)C(=O)NC(C)(C)C(=O)N[C@@H](C)C(N)=O)C(C)C)NC(=O)[C@H](CC(C)C)NC(=O)[C@H](CC(C)C)NC(=O)[C@H]([C@@H](C)O)NC1=O)C(C)C [SP-22] (Ac-[Nle]DVN[S5]TLL[S5]LAVQAA[Aib]A-NH2; staple 5-9)
[1]
  EC90: 59 µM
[1]; [30]
  EC50: < 1.5 µM
[2]
  EC90: 6.5 µM
[2]; [31]
  EC50: 1.5 to 10 µM
[3]; CC50
  CC50: > 50 µM
[3]; [14]
  CC50: > 100 µM
[3]; [15]
  CC50: > 100 µM
[3]; [16]
  CC50: > 100 µM
[3]; [17]
  CC50: > 100 µM
[3]; [18]
  CC50: > 100 µM
[3]; [19]
  CC50: > 100 µM
[3]; [20]
  CC50: > 100 µM
[3]; [21]
  CC50: > 100 µM
[3]; [22]
  CC50: > 100 µM
[3]; [23]
  CC50: > 100 µM
[3]; [24]
  CC50: > 100 µM
[3]; [25]
  CC50: > 100 µM
[4]
  EC50: 12 µM
[5]
  EC50: 13 µM
[6]
  EC50: > 50 µM
[7]
  EC50: 29 µM
[8]; read-out: EC50
  EC50: 0.54 µM
[8]; [30]
  EC50: < 1.5 µM
[9]; read-out: EC50
  EC50: 1.8 µM
[9]; [31]
  EC50: 1.5 to 10 µM

## CCCC[C@H](NC(C)=O)C(=O)N[C@@H](CC(=O)O)C(=O)N[C@H](C(=O)N[C@@H](CC(N)=O)C(=O)N[C@]1(C)CCCCCCC=CCCC[C@@](C)(C(=O)N[C@@H](C)C(=O)N[C@@H](C)C(=O)N[C@@H](CCC(N)=O)C(=O)N[C@@H](C)C(=O)N[C@@H](C)C(N)=O)NC(=O)[C@H](C)NC(=O)[C@H](CC(C)C)NC(=O)[C@H](Cc2ccccc2)NC(=O)[C@H](CC(C)C)NC(=O)[C@H](CC(C)C)NC(=O)[C@H]([C@@H](C)O)NC1=O)C(C)C [SP-24] (Ac-[Nle]DVN[R8]TLLFLA[S5]AAQAA-NH2; staple 5-12)
[1]; [10]
  EC50: 1.5 to 10 µM
[1]; [11]
  EC50: 3.4 µM
[2]; [12]
  EC50: 1.5 to 10 µM
[2]; [13]
  EC50: 6.9 µM
[3]; [14]
  CC50: > 100 µM
[3]; [15]
  CC50: > 100 µM
[3]; [20]
  CC50: > 100 µM
[3]; [21]
  CC50: > 100 µM
[3]; [22]
  CC50: > 100 µM
[3]; [23]
  CC50: > 100 µM
[8]; [26]
  EC50: 1.5 to 10 µM
[8]; [27]
  EC50: 2.5 µM
[9]; [28]
  EC50: 1.5 to 10 µM
[9]; [29]
  EC50: 4.3 µM
